Assay results as given in patent publication US7705016B2, “Regulation of food intake by modulation of long-chain fatty acyl-CoA levels in the hypothalamus” (Albert Einstein College of Medicine of Yeshiva University, priority 2003, dated 2010).

Tests used:
[1] = test system: CPT1L mRNA; assay: CPT1L mRNA in hypothalamic nuclei micro punches by real-time PCR after ICV injection; format: in vivo, rat; details: 3 days after ICV injection; adjusted for β-actin
Experimental: Surgical implantation of ICV cannulae was performed on day 1 (˜3 weeks prior to the in vivo study). Full recovery of body weight and food intake was achieved by day 7. Rats randomized for ribozyme treatment received an ICV injection of CPT1L-Ribo, CPT inhibitors or controls on day 17. The experimental group treated with TDGA received ICV injection of the inhibitor on day 21, 6 hr prior to the harvesting of brains. Panels B. and C. show quantitation of CPT1L (B) and CPT1M (C) mRNA by real-time PCR. RNA was purified from individual hypothalamic nuclei (PVN, LHA, and arcuate), which were obtained by micro punch technique 3 days after ICV injection of pTarget control (▪; N=4) or CPT1LRibo (□; N=5). […] CPT1 activity was measured in the particulate fraction of protein extracts from animals treated with ICV control injections (▪; N=6, receiving aCSF+2% DMSO or Control Ribo), TDGA ( ?; N=6), or CPTL-Ribo (□; N=5). […] Levels of stearoyl-CoA (F) and oleyl-CoA (E) respectively were measured by HPLC in arcuate of rats injected ICV with control compound (▪; ST1340) or ST1326 (□).
ICV catheters were implanted in male Sprague-Dawley rats by stereotaxic surgery (Obici et al., 2002a; Obici et al., 2001; Liu et al., 1998). […] Thus, we next measured CPT1 activity in ARC and in whole hypothalamus. […]
Quantitation of CPT1 and neuropeptides mRNA by Northern and real-time PCR. […]

[2] = test system: NPY, AgRP and POMC mRNA in ARC; assay: Neuropeptide (NPY, AgRP, POMC) mRNA in ARC by real-time PCR; format: in vivo, rat; details: ICV
From the text: In order to begin investigating the mechanisms responsible for the anorectic properties of ARC CPT1 inhibition, we next analyzed the effect of CPT1L-Ribo on the gene expression of key ARC peptides. […] Overall, these anorectic effects support the notion that changes in the neuronal levels of LC-CoAs may directly control food intake via their action on discrete hypothalamic centers. Furthermore, increases in LC-CoAs levels in selective hypothalamic neurons are likely to account for the potent effects of oleic acid and of FAS inhibitors on food intake (Loftus et al., 2000; Obici et al., 2002a; Makimura et al., 2001; Shimokawa et al., 2002).
Total RNA was isolated with Trizol (Invitrogen, Carlsbad, Calif.) from individual hypothalamic nuclei (i.e. Arcuate, PVN etc.). Single strand cDNA synthesis and real-time PCR reactions were performed as previously described (Obici et al., 2002b). CPT1L and CPT1M mRNA specific primers contained the following sequences: CPT1L forward (F) 5′-[…]-3′ (SEQ ID NO:5) and reverse (R) primer, 5′-[…]-3′ (SEQ ID NO:6); CPT1M F 5′-[…]-3′ (SEQ ID NO:7) and R 5′-[…]-3′ (SEQ ID NO:8). Hypothalamic neuropeptides expression was performed by real-time PCR using the following primers: NPY-F 5′-[…]-3′ (SEQ ID NO:9), R 5′-[…]-3′ (SEQ ID NO:10), POMC-F 5′-CCAGGCAACGGAGATGAAC-3′ (SEQ ID NO:11), R 5′-TCACTGGCCCTTCTTGTGC-3′ (SEQ ID NO:12), AgRP-F 5′-[…]-3′ (SEQ ID NO:13), R 5′-[…]-3′ (SEQ ID NO:14), and β-actin F 5′-[…]-3′ (SEQ ID NO:15), R 5′-[…]-3′ (SEQ ID NO:16). Transcript levels are expressed as copy number of each gene normalized to copy number for β-actin. Copy number for each transcript was measured against a standard curve, which was obtained by PCR runs of each primer set with serial dilutions of a plasmid containing the target template sequences.

Substance: CPT1L-Ribo: plasmid (pTarget, CMV promoter) expressing a hammerhead ribozyme that specifically cleaves rat CPT1L mRNA, complexed to PEI for ICV injection (DNA CUGUACCAAAGAGCUGUAGAGUCCGUGAGGACGAAACGCCGCUCACAAUG)
- CPT1L mRNA in the arcuate nuclei (ARC) [1]: marked decrease
- expression of POMC in the ARC [2]: not significantly altered
- AgRP mRNA in the ARC ([2]; compared with Control-Ribo): marked decrease
- NPY mRNA in the ARC ([2]; compared with Control-Ribo): marked decrease
